Results taken from US20230065416A1, “CLATHRIN-CHIMETIC ANTIBODY RECEPTOR CONSTRUCTS FOR IMMUNE CELL ACTIVATION THERAPY IN VIVO” (NANOTOMER, INC., priority 2020, published 2023).
Where two headings read alike, the source gives them in different places.

Key:
[1] = tested on: B16 melanoma; experiment: Therapeutic study in C57BL/6 mice bearing B16 tumors; assay type: in vivo, mouse
Text: (§1) BALB/c (female; 7-8 weeks) were subcutaneously implanted by 4T1 (100,000 cells; ATCC® CRL-2539™) on left 4th mammary glands. C57BL/6 (female; 7-8 weeks) were subcutaneously inoculated by B16 melanoma cells (100,000 cells; ATCC® CRL-6322™) or Lewis lung carcinoma line 1 cells (LLC1) (100,000 cells; ATCC® CRL-1642™) on right rear flanks. When the tumor size reached approximately 100 mm3, mice were randomly divided into three groups (n=6). […] The injection schedule was twice a week for two weeks. The tumor size and body weight of the mice were monitored during the treatment course. The length (l) and width (w) of the tumor were measured by a digital vernier caliper, and tumor volume (V) was defined as: […]V=l×w2/2. The tumor growth inhibition (TGI) was estimated by a following equation: TGI (%)=(Vc−Vt)/(Vc−Vi)×100, where Vc is the volume of the control tumor at the end of the study, Vt is the volume of drug-treated tumor at the end of the study, and Vi is the volume of tumor at the initial treatment.
Encouraged by the therapeutic effects for 4T1 tumor model, these protein-drug conjugates were further investigated for cancer therapy in a B16 (melanoma) or LLC1 (lung cancer)-bearing C57BL/6 mice. Drugs were now injected into mice having a tumor volume of approximately 100 mm3 according to the injection schedule identical to the 4T1 study.

[2] = tested on: ovarian carcinoma; settings: cited from earlier work
[3] = tested on: 4T1 murine breast cancer; experiment: Therapeutic study in BALB/c mice bearing 4T1 tumors; assay type: in vivo, mouse
Method: as §1, with “When” for “BALB/c (female; 7-8 weeks) were subcutaneously implanted by 4T1 (100,000 cells; ATCC® CRL-2539™) on left 4th mammary glands. C57BL/6 (female; 7-8 weeks) were subcutaneously inoculated by B16 melanoma cells (100,000 cells; ATCC® CRL-6322™) or Lewis lung carcinoma line 1 cells (LLC1) (100,000 cells; ATCC® CRL-1642™) on right rear flanks. When”
Before the diameter of tumor reached approximately 20 mm, the mice were euthanized, and lungs, livers, kidneys, hearts, pancreas, spleen, tumor, non-drain inguinal lymph nodes (far from tumor), and drain inguinal lymph nodes (located near tumor) were harvested and embedded in optimum cutting temperature (OCT) compound (TISSUE TEK™; SAKURA FINETEK™; Torrance, Calif.).
Representative photos for tumors from each group on day 27 post-implant are shown in top images of FIG. 14B. We evaluated the tumor growth inhibition (TGI) rate of each group (see the details in Method).

[4] = tested on: breast cancer; settings: cited from earlier work
[5] = tested on: Lewis lung carcinoma line 1 (LLC1); experiment: Therapeutic study in C57BL/6 mice bearing LLC1 tumors; assay type: in vivo, mouse; settings: LLC1-bearing C57BL/6 mice; total dose of TAXOL® 32 μg/kg; n=6
Method: as §1, with “When” for “BALB/c (female; 7-8 weeks) were subcutaneously implanted by 4T1 (100,000 cells; ATCC® CRL-2539™) on left 4th mammary glands. C57BL/6 (female; 7-8 weeks) were subcutaneously inoculated by B16 melanoma cells (100,000 cells; ATCC® CRL-6322™) or Lewis lung carcinoma line 1 cells (LLC1) (100,000 cells; ATCC® CRL-1642™) on right rear flanks. When”

[6] = Trafficking of Protin-102 in a B6 mouse, imaging 24 hours post-injection; assay type: in vivo
Method: The clathrin heavy chains were labeled with CF680 dye, a cyanine-based dye that reacts with alkyne and is commonly used for labeling antibodies. The clathrin heavy chains were then injected into a C57BL/6 (B6) mouse, and imaging was performed 24 hours post-injection.

CC(=O)O[C@H]1C(=O)[C@@]2(C)[C@H]([C@H](OC(=O)c3ccccc3)[C@]3(O)C[C@H](OC(=O)[C@H](O)[C@@H](NC(=O)c4ccccc4)c4ccccc4)C(C)=C1C3(C)C)[C@]1(OC(C)=O)CO[C@@H]1C[C@@H]2O [TAXOL®, 5beta, 20-epoxy-1,2alpha, 4,7beta, 10beta, 13alpha-hexahydroxytax-11-en-9-one 4,10-diacetate 2-benzoate 13-ester with (2R,3S)—N-benzoyl-3-phenylisoserine]
TGI ([1]; B16): 47.3±1.2% | tumor volume on the final day ([1]; B16-bearing C57BL/6 mice, total dose of TAXOL® 32 μg/kg, n=6): 1.29±0.50 ×103 mm3 | Response rate ([2]; regimen 135/24): 13.2% | Survival, median ([2]; regimen 135/24): 10.7 months | Time to Progression, median ([2]; regimen 135/24): 2.8 months | Response rate ([2]; regimen 155/3 as printed): 15.2% | Time to Progression, median ([2]; regimen 155/3 as printed): 3.1 months | Response rate ([2]; regimen 175/3 (mg/m2 / infusion h)): 14.6% | Survival, median ([2]; regimen 175/3): 11.5 months | Time to Progression, median ([2]; regimen 175/3): 4.4 months | Response rate ([2]; regimen 175/4): 21.7% | Survival, median ([2]; regimen 175/4): 11.8 months | Time to Progression, median ([2]; regimen 175/4): 4.2 months | final volume of the tumor ([3]; 4T1, day 27 post-implant, i.v. 2 times per week for 2 weeks, total dose of TAXOL® 32 μg/kg, n=6): 1.70±0.42 ×103 mm3 | tumor growth inhibition (TGI) rate ([3]; 4T1, end of study, identical dose of TAXOL® (8 μg/kg per injection), n=6): 26.2±1.2% | nodules in the lung (metastasis of 4T1 tumor) ([3]; 4T1-bearing mice, day 27 post-implant): nodules were widely located in the lung | Response rate ([4]; regimen 135/3): 22% | Survival, median ([4]; regimen 135/3): 10.5 months | Time to Progression, median ([4]; regimen 135/3): 3.0 months | Response rate ([4]; regimen 175/3): 28% | Survival, median ([4]; regimen 175/3): 11.7 months | Time to Progression, median ([4]; regimen 175/3): 4.2 months | tumor volume on the final day [5]: 1.21±0.31 ×103 mm3

Protin-102: clathrin heavy chain
distribution among lymph nodes ([6]; compared with axillary and inguinal lymph nodes): concentration in the mesenteric lymph nodes | organ with the highest level of signal ([6]; labeled with CF680): liver
